PubChem BioAssay (NCI)
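These data come from cells grown in 96-well plates and exposed to compound for 48 hours at five concentrations. TGI marks complete inhibition of growth.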

What was measured:
Experiment in all cases: NCI anticancer screen, dose series, 48 h
HCT-116 colon = system: HCT-116 colon
SK-OV-3 ovarian = system: SK-OV-3 ovarian
U251 CNS = system: U251 CNS
MDA-MB-231 breast = system: MDA-MB-231 breast
SW-620 colon = system: SW-620 colon
HCT-15 colon = system: HCT-15 colon
SK-MEL-2 melanoma = system: SK-MEL-2 melanoma
HOP-92 NSCLC = system: HOP-92 NSCLC
T-47D breast = system: T-47D breast
SF-295 CNS = system: SF-295 CNS
NCI-H23 lung = system: NCI-H23 lung
HL-60(TB) leukemia = system: HL-60(TB) leukemia
SNB-75 CNS = system: SNB-75 CNS
SNB-19 CNS = system: SNB-19 CNS
DU-145 prostate = system: DU-145 prostate
EKVX NSCLC = system: EKVX NSCLC
SK-MEL-5 melanoma = system: SK-MEL-5 melanoma
RPMI-8226 leukemia = system: RPMI-8226 leukemia
MALME-3M melanoma = system: MALME-3M melanoma
OVCAR-4 ovarian = system: OVCAR-4 ovarian
MOLT-4 leukemia = system: MOLT-4 leukemia
NCI-H522 lung = system: NCI-H522 lung
M14 melanoma = system: M14 melanoma
MDA-N = system: MDA-N
A498 renal = system: A498 renal
HT29 colon = system: HT29 colon
MCF7 breast = system: MCF7 breast
UO-31 renal = system: UO-31 renal
ACHN renal = system: ACHN renal
OVCAR-8 ovarian = system: OVCAR-8 ovarian
LOX IMVI melanoma = system: LOX IMVI melanoma
KM12 colon = system: KM12 colon
MDA-MB-435 = system: MDA-MB-435
HCC-2998 colon = system: HCC-2998 colon
SR leukemia = system: SR leukemia
HOP-62 NSCLC = system: HOP-62 NSCLC
OVCAR-5 ovarian = system: OVCAR-5 ovarian
COLO 205 colon = system: COLO 205 colon
A549 NSCLC = system: A549 NSCLC
SN12C renal = system: SN12C renal
SK-MEL-28 melanoma = system: SK-MEL-28 melanoma
BT-549 breast = system: BT-549 breast
CCRF-CEM leukemia = system: CCRF-CEM leukemia
786-0 renal = system: 786-0 renal
HS 578T breast = system: HS 578T breast
TK-10 renal = system: TK-10 renal
SF-268 CNS = system: SF-268 CNS
NCI/ADR-RES ovarian = system: NCI/ADR-RES ovarian
CAKI-1 renal = system: CAKI-1 renal
PC-3 prostate = system: PC-3 prostate
UACC-257 melanoma = system: UACC-257 melanoma
K-562 leukemia = system: K-562 leukemia
NCI-H460 lung = system: NCI-H460 lung
RXF 393 renal = system: RXF 393 renal
IGROV1 ovarian = system: IGROV1 ovarian
UACC-62 melanoma = system: UACC-62 melanoma
OVCAR-3 ovarian = system: OVCAR-3 ovarian
SF-539 CNS = system: SF-539 CNS

Measured: TGI

COCN1C(=O)[C@@H]2C[C@@H](O)CN2C(=O)c2ccccc21
not listed: OVCAR-3 ovarian | SF-539 CNS
> 100 µM: all other assays above

S=C(NCCc1ccccn1)N/N=C(\c1ccccc1)c1ccccn1
14.1 µM: UO-31 renal
54.7 µM: OVCAR-4 ovarian
27.1 µM: SF-539 CNS
> 58 µM: RPMI-8226 leukemia
21.7 µM: HT29 colon
> 70.5 µM: UACC-257 melanoma
> 86.5 µM: HCT-15 colon
36.1 µM: LOX IMVI melanoma
> 76.1 µM: SF-268 CNS
0.951 µM: A498 renal
17.9 µM: ACHN renal
> 56.8 µM: 786-0 renal
> 71.6 µM: EKVX NSCLC
52.8 µM: RXF 393 renal
> 78.6 µM: MOLT-4 leukemia
> 55.7 µM: HOP-92 NSCLC | SF-295 CNS
> 48.6 µM: DU-145 prostate
> 63 µM: HCC-2998 colon
40.2 µM: SK-MEL-5 melanoma
17.4 µM: OVCAR-8 ovarian
> 50.1 µM: HOP-62 NSCLC
> 75.7 µM: T-47D breast
1.44 µM: NCI/ADR-RES ovarian
> 67.3 µM: SN12C renal
39.3 µM: BT-549 breast
> 27.3 µM: NCI-H23 lung
> 91.5 µM: KM12 colon
> 66.2 µM: SK-OV-3 ovarian
> 58.8 µM: CAKI-1 renal
> 78 µM: SNB-75 CNS
> 24.4 µM: UACC-62 melanoma
> 57.7 µM: SR leukemia
not listed: IGROV1 ovarian
> 100 µM: all other assays above
